According to patent US20240270821A1, “GIP/GLP1/GCG TRI-RECEPTOR AGONISTS AND USES THEREOF” (priority 2023, published 2024):
pEC50: −log10 of the molar value. Read-outs that look alike come from different tables or passages of the source. Starred links: 1 amine or outer side, 2 acyl side, 3 side chain; linkers in the order of their positions; H or OH if unused. Non-standard residues stand in square brackets, D forms with d. Groups on a side chain read outwards from the residue. No end group written: not given here. *: point of attachment. C18 diacid = O=C(O)CCCCCCCCCCCCCCCCC(=O)*; αMePhe(2-F) = C[C@](N)(Cc1ccccc1F)C(=O)O; γGlu = O=C(O)[C@H](CCC(=O)[*:2])N[*:1]; αMe4Pal = C[C@](N)(Cc1ccncc1)C(=O)O; αMeY = C[C@](N)(Cc1ccc(O)cc1)C(=O)O; 4Pal = N[C@@H](Cc1ccncc1)C(=O)O; αMeL = CC(C)C[C@](C)(N)C(=O)O; αMeS = C[C@](N)(CO)C(=O)O; Orn = NCCC[C@H](N)C(=O)O; AEEA = NCCOCCOCC(=O)O; Aib = CC(C)(N)C(=O)O

How the values were obtained:
Assay type in all cases: cell-based
hGIPR [1] = target: T1, hGIPR (Homo sapiens, UniProt P48546); experiment: Functional cAMP activity in the presence of 1% HSA; settings: read-out: cAMP Rel EC50, hGIPR
T1 sequence (P48546 22-466): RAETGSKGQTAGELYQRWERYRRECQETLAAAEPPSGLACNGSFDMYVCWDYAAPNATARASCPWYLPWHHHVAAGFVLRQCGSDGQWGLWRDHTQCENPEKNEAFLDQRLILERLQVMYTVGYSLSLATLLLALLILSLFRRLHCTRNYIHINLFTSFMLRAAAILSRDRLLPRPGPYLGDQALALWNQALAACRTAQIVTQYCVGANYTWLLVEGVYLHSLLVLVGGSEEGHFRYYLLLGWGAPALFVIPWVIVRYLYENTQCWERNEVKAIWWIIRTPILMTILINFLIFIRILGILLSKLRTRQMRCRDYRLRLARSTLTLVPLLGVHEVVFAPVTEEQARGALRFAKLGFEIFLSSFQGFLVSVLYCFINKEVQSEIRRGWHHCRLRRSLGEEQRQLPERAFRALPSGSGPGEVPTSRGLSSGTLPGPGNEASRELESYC

hGLP-1R [2] = target: T2, hGLP-1R (Homo sapiens, UniProt P43220); experiment: Functional cAMP activity in the presence of 1% HSA; settings: read-out: cAMP Rel EC50, hGLP-1R
T2 sequence (P43220 24-463): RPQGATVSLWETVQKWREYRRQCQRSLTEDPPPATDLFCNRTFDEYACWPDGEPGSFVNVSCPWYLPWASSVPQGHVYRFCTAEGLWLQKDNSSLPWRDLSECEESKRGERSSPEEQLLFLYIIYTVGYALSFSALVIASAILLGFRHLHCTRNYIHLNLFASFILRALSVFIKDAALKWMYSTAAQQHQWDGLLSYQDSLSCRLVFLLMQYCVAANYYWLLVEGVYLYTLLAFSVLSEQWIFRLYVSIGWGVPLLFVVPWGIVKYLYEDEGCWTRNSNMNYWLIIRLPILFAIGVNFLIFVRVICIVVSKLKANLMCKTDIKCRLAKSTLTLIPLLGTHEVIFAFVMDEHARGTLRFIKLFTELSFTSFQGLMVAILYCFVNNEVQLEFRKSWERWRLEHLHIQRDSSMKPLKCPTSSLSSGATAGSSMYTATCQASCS

human GcgR = human GcgR (Homo sapiens, UniProt P47871); experiment: Functional cAMP activity in the presence of 1% HSA; settings: read-out: cAMP Rel EC50, hGcgR
Chain of human GcgR (P47871 26-477): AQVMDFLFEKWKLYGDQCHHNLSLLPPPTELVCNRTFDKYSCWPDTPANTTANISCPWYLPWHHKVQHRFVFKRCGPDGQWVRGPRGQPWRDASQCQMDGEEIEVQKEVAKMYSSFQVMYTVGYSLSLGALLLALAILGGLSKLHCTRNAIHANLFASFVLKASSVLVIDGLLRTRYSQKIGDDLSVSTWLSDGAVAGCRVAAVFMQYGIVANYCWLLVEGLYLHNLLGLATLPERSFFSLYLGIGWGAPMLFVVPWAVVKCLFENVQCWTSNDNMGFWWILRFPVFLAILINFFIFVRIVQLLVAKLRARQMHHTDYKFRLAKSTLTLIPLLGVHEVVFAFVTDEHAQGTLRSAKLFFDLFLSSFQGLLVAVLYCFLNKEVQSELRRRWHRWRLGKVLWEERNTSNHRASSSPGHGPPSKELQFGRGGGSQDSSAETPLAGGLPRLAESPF

hGIPR [3] = target: T1, hGIPR; experiment: Functional cAMP activation in the presence of 0.1% casein (no HSA); settings: read-out: Relative cAMP EC50, hGIPR;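 as to Relative cAMP EC50, hGIPR: intracellular cAMP rise after 30 min at 37 °C read by HTRF against a standard curve, scaled between buffer alone (0%) and top control ligand concentration (100%), four-parameter fit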;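 as to Relative cAMP EC50, hGLP-1R: intracellular cAMP rise after 30 min at 37 °C read by HTRF, normalized between buffer only (0%) and maximal control ligand (100%), four-parameter variable-slope fit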;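 as to Relative cAMP EC50, hGcgR: intracellular cAMP rise after 30 min at 37 °C, read by HTRF against a cAMP standard curve, scaled from buffer only (0%) to maximal control ligand response (100%)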
hGLP-1R [4] = target: T2, hGLP-1R; experiment: as above; settings: read-out: Relative cAMP EC50, hGLP-1R
hGcgR = hGcgR (Homo sapiens, UniProt P47871); experiment: as above; settings: read-out: Relative cAMP EC50, hGcgR;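 also: intracellular cAMP rise after 30 min at 37 °C, read by HTRF against a cAMP standard curve, scaled from buffer only (0%) to maximal control ligand response (100%)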
Chain of hGcgR (P47871 26-477): as above

[5] = 0.1% casein, no HSA, geometric mean
[6] = in the presence of 0.1% casein (no HSA), geometric mean

Row | Substance | pEC50 (hGIPR [1]) | pEC50 (hGLP-1R [2]) | pEC50 (human GcgR) | pEC50 (hGIPR [3]; [5]) | pEC50 (hGLP-1R [4]; [5]) | pEC50 (hGcgR; [5]) | pEC50 (hGIPR [3]) | pEC50 (hGLP-1R [4]) | pEC50 (hGcgR) | pEC50 (hGIPR [3]; [6]) | pEC50 (hGLP-1R [4]; [6]) | pEC50 (hGcgR; [6])
1 | Y[Aib]QGT[αMePhe(2-F)]TSD[4Pal][αMeS]I[αMeL]LD[Orn]K([AEEA-γGlu-C18 diacid])AQ[αMe4Pal]EFI[dQ][αMeY]LIEGGPSSGAPPPSGS-NH2 [Example 1202] | 9.33 | 7.64 | 7.15 | 11.20 | 9.63 | 9.30 |  |  |  |  |  | 
2 | Y[Aib]QGT[αMePhe(2-F)]TSD[4Pal][αMeS]I[αMeL]LD[Orn]K([AEEA-γGlu-C18 diacid])YQ[αMe4Pal]EFI[dE][αMeY]LVEGGPSSGAPPPSGS-NH2 [Example 767] | 8.82 | 7.25 | 6.68 |  |  |  | 11.10 | 9.52 | 8.95 |  |  | 
3 | Y[Aib]QGT[αMePhe(2-F)]TSD[4Pal][αMeS]I[αMeL]LD[Orn]K([Glu-γGlu-C18 diacid])AQ[Aib][Orn]FI[dE][αMeY]LSEGGPSSGEPPPSGTEE-NH2 [Example 564] | 7.97 | 7.00 | 6.18 |  |  |  | 9.75 | 8.88 | 7.99 |  |  | 
4 | Y[Aib]QGT[αMePhe(2-F)]TSD[4Pal][αMeS]I[αMeL]LD[Orn]K([γGlu-γGlu-C18 diacid])AA[Aib]EFI[dE][αMeY]LIEGGPSSGEPPPSGGGE-NH2 [Example 748] | 9.06 | 7.64 | 6.81 |  |  |  | 10.98 | 9.59 | 8.85 |  |  | 
5 | Y[Aib]QGT[αMePhe(2-F)]TSD[4Pal][αMeS]I[αMeL]LD[Orn]K([γGlu-γGlu-C18 diacid])AQ[Aib]NFI[dE][αMeY]LQEGGPSSGEPPPEGTE-NH2 [Example 526] | 8.67 | 7.64 | 6.28 |  |  |  | 10.44 | 9.38 | 8.06 |  |  | 
6 | Y[Aib]QGT[αMePhe(2-F)]TSD[4Pal][αMeS]I[αMeL]LD[Orn]K([γGlu-γGlu-C18 diacid])AQ[Aib]QFI[dE][αMeY]LQEGGPSSGEPPPEGTE-NH2 [Example 528] | 8.81 | 7.61 | 6.32 |  |  |  | 10.48 | 9.36 | 8.15 |  |  | 
7 | Y[Aib]QGT[αMePhe(2-F)]TSD[4Pal][αMeS]I[αMeL]LD[Orn]K([γGlu-γGlu-C18 diacid])AQ[Aib][Orn]FI[dE]YLIEGGPSSGEPPPSGTE-NH2 [Example 521] | 9.01 | 7.61 | 6.56 |  |  |  | 10.79 | 9.47 | 8.39 |  |  | 
8 | Y[Aib]QGT[αMePhe(2-F)]TSD[4Pal][αMeS]I[αMeL]LD[Orn]K([γGlu-γGlu-C18 diacid])AQ[Aib][Orn]FI[dE][αMeY]LAEGGPSSGEPPPSGTEE-NH2 [Example 571] | 8.37 | 7.37 | 6.61 |  |  |  | 10.13 | 9.22 | 8.49 |  |  | 
9 | Y[Aib]QGT[αMePhe(2-F)]TSD[4Pal][αMeS]I[αMeL]LD[Orn]K([γGlu-γGlu-C18 diacid])AQ[Aib][Orn]FI[dE][αMeY]LQEGGPSSGEPPPEGAEE-NH2 [Example 587] | 8.46 | 7.50 | 6.60 |  |  |  | 10.20 | 9.21 | 8.27 |  |  | 
10 | Y[Aib]QGT[αMePhe(2-F)]TSD[4Pal][αMeS]I[αMeL]LD[Orn]K([γGlu-γGlu-C18 diacid])AQ[Aib][Orn]FI[dE][αMeY]LQEGGPSSGEPPPEGGEE-NH2 [Example 586] | 8.61 | 7.54 | 6.52 |  |  |  | 10.34 | 9.23 | 8.34 |  |  | 
11 | Y[Aib]QGT[αMePhe(2-F)]TSD[4Pal][αMeS]I[αMeL]LD[Orn]K([γGlu-γGlu-C18 diacid])AQ[Aib][Orn]FI[dE][αMeY]LQEGGPSSGEPPPEGTE-NH2 [Example 503] | 8.69 | 7.58 | 6.63 |  |  |  | 10.29 | 9.28 | 8.40 |  |  | 
12 | Y[Aib]QGT[αMePhe(2-F)]TSD[4Pal][αMeS]I[αMeL]LD[Orn]K([γGlu-γGlu-C18 diacid])AQ[Aib][Orn]FI[dE][αMeY]LQEGGPSSGEPPPSGTE-NH2 [Example 504] | 8.74 | 7.78 | 6.79 |  |  |  | 10.44 | 9.60 | 8.55 |  |  | 
13 | Y[Aib]QGT[αMePhe(2-F)]TSD[4Pal][αMeS]I[αMeL]LD[Orn]K([γGlu-γGlu-C18 diacid])AQ[Aib][Orn]FI[dE][αMeY]LSEGGPSSGEPPPSGSEE-NH2 [Example 569] | 7.91 | 7.07 | 6.16 |  |  |  | 9.70 | 8.95 | 8.36 |  |  | 
14 | Y[Aib]QGT[αMePhe(2-F)]TSD[4Pal][αMeS]I[αMeL]LD[Orn]K([γGlu-γGlu-C18 diacid])AQ[Aib][Orn]FI[dE][αMeY]LTEGGPSSGEPPPEGTEE-NH2 [Example 597] | 8.62 | 7.44 | 6.48 |  |  |  | 10.19 | 9.22 | 8.28 |  |  | 
15 | Y[Aib]QGT[αMePhe(2-F)]TSD[4Pal][αMeS]I[αMeL]LD[Orn]K([γGlu-γGlu-C18 diacid])AQ[αMe4Pal]EFI[dE][αMeY]LIEGGPSSGAPPPEGGGEEE-NH2 [Example 1221] | 9.09 | 7.24 | 6.73 | 10.95 | 9.08 | 8.64 |  |  |  |  |  | 
16 | Y[Aib]QGT[αMePhe(2-F)]TSD[4Pal][αMeS]I[αMeL]LD[Orn]K([γGlu-γGlu-C18 diacid])AQ[αMe4Pal]EFI[dE][αMeY]LIEGGPSSGAPPPSGE-NH2 [Example 1150] | 9.23 | 7.52 | 6.79 |  |  |  |  |  |  | 11.16 | 9.56 | 8.93
17 | Y[Aib]QGT[αMePhe(2-F)]TSD[4Pal][αMeS]I[αMeL]LD[Orn]K([γGlu-γGlu-C18 diacid])AQ[αMe4Pal]EFI[dE][αMeY]LIEGGPSSGEPPPEGGGE-NH2 [Example 762] | 9.16 | 7.56 | 6.92 |  |  |  | 11.05 | 9.56 | 8.51 |  |  | 
18 | Y[Aib]QGT[αMePhe(2-F)]TSD[4Pal][αMeS]I[αMeL]LD[Orn]K([γGlu-γGlu-C18 diacid])AQ[αMe4Pal]EFI[dE][αMeY]LVEGGPSSGAPPPSGSE-NH2 [Example 1162] | 9.18 | 7.46 | 6.70 |  |  |  |  |  |  | 11.09 | 9.43 | 8.59
19 | Y[Aib]QGT[αMePhe(2-F)]TSD[4Pal][αMeS]I[αMeL]LD[Orn]K([γGlu-γGlu-C18 diacid])AQ[αMe4Pal]EFI[dE][αMeY]LVEGGPSSGEPPPSGSEE-NH2 [Example 740] | 9.20 | 7.53 | 6.74 |  |  |  | 10.92 | 9.34 | 8.27 |  |  | 
20 | Y[Aib]QGT[αMePhe(2-F)]TSD[4Pal][αMeS]I[αMeL]LD[Orn]QAQ[αMe4Pal]EFI[dE][αMeY]LIEGGPSSGAPPPSGGGE-NH2 [Example 1234] | 10.96 | 8.94 | 7.93 | 10.87 | 8.93 | 7.94 |  |  |  |  |  | 
21 | Y[Aib]QGT[αMePhe(2-F)]TSD[4Pal][αMeS]I[αMeL]LD[Orn][Orn]([AEEA-γGlu-C18 diacid])AQ[αMe4Pal]EFI[dE][αMeY]LVEGGPSSGAPPPSGS-NH2 [Example 1210] | 9.20 | 7.42 | 6.54 | 11.15 | 9.43 | 8.65 |  |  |  |  |  | 
22 | Y[Aib]QGT[αMePhe(2-F)]TSD[4Pal][αMeS]I[αMeL]LE[Orn]K([AEEA-γGlu-C18 diacid])AQ[αMe4Pal]EFI[dE][αMeY]LVEGGPSSGAPPPSGS-NH2 [Example 768] | 8.58 | 7.48 | 5.64 |  |  |  | 10.53 | 9.59 | 7.99 |  |  | 
23 | Y[Aib]Q[dA]T[αMePhe(2-F)]TSD[4Pal]SI[αMeL]LD[Orn]K([AEEA-γGlu-C18 diacid])AQ[αMe4Pal][Orn]FI[dE][αMeY]LIEGGPSSGEPPPESE-NH2 [Example 765] | 7.35 | 7.58 | 6.95 |  |  |  | 10.19 | 9.60 | 9.02 |  |  | 
24 | Y[Aib]Q[dA]T[αMePhe(2-F)]TSD[4Pal][αMeS]I[αMeL]LD[Orn]K([AEEA-γGlu-C18 diacid])AQ[Aib]EFI[dE][αMeY]LIEGGPSSGAPPPSGS-NH2 [Example 1203] | 8.07 | 7.41 | 6.36 | 10.11 | 9.53 | 8.59 |  |  |  |  |  | 
